Test results from ChEMBL document CHEMBL4311972, “Discovery of a benzothiophene-flavonol halting miltefosine and antimonial drug resistance in Leishmania parasites through the application of medicinal chemistry, screening and genomics” (Eur J Med Chem, 2019).
Where “and” joins values, the source holds several entries; their conditions need not be identical. Equal entries are not always repeated. Calls of active or inactive are those of the source. No cut-off for these calls is given here.

Experiments:
[1] = biological target: T1, Albumin (Bos taurus, UniProt P02769); assay: Binding affinity to bovine serum albumin in phosphate buffer assessed as decrease in emission intensity at 450 nm at 5 uM measured at pH 8 by fluorescence emission spectrum analysis; format: ADME; conditions: cattle, isolated protein
T1 sequence (P02769 whole entry): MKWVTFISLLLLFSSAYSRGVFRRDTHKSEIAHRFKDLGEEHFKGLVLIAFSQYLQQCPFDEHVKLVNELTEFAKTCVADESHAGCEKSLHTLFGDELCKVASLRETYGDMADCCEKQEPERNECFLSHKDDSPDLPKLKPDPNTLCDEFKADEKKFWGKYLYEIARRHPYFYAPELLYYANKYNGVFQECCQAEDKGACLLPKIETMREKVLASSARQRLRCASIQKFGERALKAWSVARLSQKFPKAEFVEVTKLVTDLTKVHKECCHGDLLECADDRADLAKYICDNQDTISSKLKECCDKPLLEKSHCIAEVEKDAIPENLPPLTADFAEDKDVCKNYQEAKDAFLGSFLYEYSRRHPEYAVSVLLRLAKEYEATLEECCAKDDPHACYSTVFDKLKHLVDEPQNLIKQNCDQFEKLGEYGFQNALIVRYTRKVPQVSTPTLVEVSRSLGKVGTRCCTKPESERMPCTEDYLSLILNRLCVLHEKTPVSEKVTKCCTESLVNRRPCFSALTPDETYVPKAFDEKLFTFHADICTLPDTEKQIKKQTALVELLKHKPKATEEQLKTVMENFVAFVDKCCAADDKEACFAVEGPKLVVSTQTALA

[2] = biological target: T1, Albumin; assay: Binding affinity to bovine serum albumin in phosphate buffer assessed as compound lifetime at 530 nm at 5 uM measured at pH 8 by fluorescence emission spectrum analysis; format: ADME; conditions: cattle, isolated protein
[3] = biological target: Albumin (Homo sapiens, UniProt P02768); assay: Binding affinity to human serum albumin in phosphate buffer assessed as increase in emission anisotropy at 530 nm at 5 uM measured at pH 8 by fluorescence emission spectrum analysis; format: ADME; conditions: isolated protein
Chain of Albumin (Homo sapiens, UniProt P02768) (P02768 whole entry): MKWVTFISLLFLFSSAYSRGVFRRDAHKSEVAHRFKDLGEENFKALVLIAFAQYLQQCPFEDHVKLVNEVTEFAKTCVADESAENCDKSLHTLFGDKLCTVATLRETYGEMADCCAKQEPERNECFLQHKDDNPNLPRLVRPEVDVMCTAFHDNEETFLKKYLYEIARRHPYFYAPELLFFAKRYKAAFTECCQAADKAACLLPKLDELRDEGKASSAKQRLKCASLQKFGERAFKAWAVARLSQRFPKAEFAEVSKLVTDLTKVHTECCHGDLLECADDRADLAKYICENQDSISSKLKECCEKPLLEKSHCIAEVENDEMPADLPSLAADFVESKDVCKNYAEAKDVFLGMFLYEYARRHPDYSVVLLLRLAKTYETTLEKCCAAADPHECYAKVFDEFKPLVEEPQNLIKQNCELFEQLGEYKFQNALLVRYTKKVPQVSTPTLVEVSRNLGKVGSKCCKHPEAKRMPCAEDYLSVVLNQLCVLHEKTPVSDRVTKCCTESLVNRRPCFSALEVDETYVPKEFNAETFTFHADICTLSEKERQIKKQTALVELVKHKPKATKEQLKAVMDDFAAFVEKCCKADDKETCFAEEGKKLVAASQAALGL

[4] = test system: Leishmania donovani; assay: (§1) Antileishmanial activity against antimony resistant Leishmania donovani BPK190 promastigotes infected in C57BL/6 mouse bone marrow-derived macrophages assessed as reduction in parasite load at 5 uM treated with compound at 24 hrs post-infection measured after 72 hrs post infection by q-PCR analysis relative to control; format: functional
[5] = Tmax in BALB/c mouse at 20 mg/kg, po measured upto 72 hrs by snapshot method; format: ADME, organism-based; conditions: in vivo
[6] = Toxicity in Syrian hamster infected with Leishmania infantum BCN150 promastigotes assessed as spleen lesions at 40 mg/kg/day, po for 10 days formulated with 8% v/v DMSO measured under necropsy; format: organism-based, Mesocricetus auratus; conditions: in vivo, 240 h
[7] = test system: Leishmania infantum; assay: Antileishmanial activity against Leishmania infantum amastigotes infected in Syrian hamster assessed as parasite load within liver at 40 mg/kg/day, po for 10 days formulated with 50% v/v cyclodextrin (reference value: 5000000.000 +/- 1673320.053/g); format: functional
[8] = test system: Leishmania donovani; assay: as §1, with “at 10” for “at 5”; format: functional
[9] = Chemical stability of compound in PBS assessed as decrease in absorbance at 60 uM at pH 7 to 8 measured after exposure to daylight by UV-vis spectrophotometry analysis; format: physicochemical; conditions: buffer, pH 7, 60 µM
[10] = AUC (total) in BALB/c mouse at 20 mg/kg, po measured upto 72 hrs by snapshot method; format: ADME, organism-based; set-up: time < 72 hr, dose 20 mg/kg, route oral; conditions: in vivo
[11] = test system: Leishmania infantum; assay: Antileishmanial activity against Leishmania infantum amastigotes infected in Syrian hamster assessed as reduction in parasite load at 40 mg/kg/day, po for 10 days formulated with 8% v/v DMSO relative to control; format: functional; conditions: 240 h
[12] = Toxicity in Syrian hamster infected with Leishmania infantum BCN150 promastigotes assessed as spleen weight at 40 mg/kg/day, po for 10 days formulated with 50% v/v cyclodextrin (reference value: 0.191 +/- 0.061 g); format: organism-based, Mesocricetus auratus; conditions: in vivo, 240 h
[13] = biological target: T2, Beta-casein (Bos taurus, UniProt P02666); assay: Binding affinity to bovine milk beta-casein in phosphate buffer assessed as compound lifetime at 530 nm at 5 uM measured at pH 8 by fluorescence emission spectrum analysis; format: ADME; conditions: cattle
T2 sequence (P02666 whole entry): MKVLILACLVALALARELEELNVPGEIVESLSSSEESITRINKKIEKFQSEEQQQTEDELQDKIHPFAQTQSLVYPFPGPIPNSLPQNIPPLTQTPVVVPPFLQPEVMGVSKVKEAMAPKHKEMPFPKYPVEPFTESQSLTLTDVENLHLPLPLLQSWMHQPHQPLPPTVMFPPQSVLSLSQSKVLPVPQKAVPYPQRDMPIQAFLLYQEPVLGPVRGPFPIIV

[14] = Plasma concentration in syrian hamster infected with Leishmania infantum BCN150 promastigote at 40 mg/kg/day, po for 10 days formulated with 30% v/v cyclodextrin; format: ADME, organism-based, Mesocricetus auratus
[15] = Toxicity in Syrian hamster infected with Leishmania infantum BCN150 promastigotes assessed as effect on alkaline phosphatase level at 40 mg/kg/day, po for 10 days formulated with 30 to 50% v/v cyclodextrin measured after the last treatment; format: organism-based, Mesocricetus auratus; conditions: in vivo, 240 h
[16] = test system: Leishmania infantum; assay: Antileishmanial activity against Leishmania infantum amastigotes infected in Syrian hamster assessed as parasite load within spleen at 40 mg/kg/day, po for 10 days formulated with 30% v/v cyclodextrin (reference value: 9874032.937 +/- 3482270.184/g); format: functional
[17] = Toxicity in Syrian hamster infected with Leishmania infantum BCN150 promastigotes assessed as spleen weight at 40 mg/kg/day, po for 10 days formulated with 8% v/v DMSO (reference value: 0.182 +/- 0.036 g); format: organism-based, Mesocricetus auratus; conditions: in vivo, 240 h
[18] = biological target: T2, Beta-casein; assay: Binding affinity to bovine milk beta-casein in phosphate buffer assessed as increase in emission intensity at 530 nm at 5 uM measured at pH 8 by fluorescence emission spectrum analysis; format: ADME; conditions: cattle
[19] = test system: WI-38; assay: Cytostatic activity against human WI38 cells assessed as reduction in cell growth incubated for 48 hrs by Celltiter-Glo luminescence assay; format: cell-based; conditions: wi-38, 48 h
[20] = test system: hERG; assay: Selectivity ratio of IC50 for human ERG to EC50 for antileishmanial activity against luciferase expressing intracellular amastigote stage of Leishmania infantum infected in human THP1 cells; format: toxicity, cell-based
[21] = Toxicity in Syrian hamster infected with Leishmania infantum BCN150 promastigotes assessed as effect on plasma urea level at 40 mg/kg/day, po for 10 days formulated with 30 to 50% v/v cyclodextrin measured after the last treatment; format: organism-based, Mesocricetus auratus; conditions: in vivo, 240 h
[22] = Toxicity in Syrian hamster infected with Leishmania infantum BCN150 promastigotes assessed as effect on AST level at 40 mg/kg/day, po for 10 days formulated with 8% v/v DMSO measured after the last treatment; format: organism-based, Mesocricetus auratus; conditions: in vivo, 240 h
[23] = Toxicity in Syrian hamster infected with Leishmania infantum BCN150 promastigotes assessed as spleen lesions at 40 mg/kg/day, po for 10 days formulated with 30 to 50% v/v cyclodextrin measured under necropsy; format: organism-based, Mesocricetus auratus; conditions: in vivo, 240 h
[24] = Binding affinity to trypsin in bovine pancreas in phosphate buffer assessed as increase in emission intensity at 530 nm at 5 uM measured at pH 8 by fluorescence emission spectrum analysis; format: ADME, Bos taurus; conditions: cattle
[25] = Chemical stability of compound in PBS assessed as decrease in absorbance at 20 uM at pH 8 measured after air bubbling by UV-vis spectrophotometry analysis; format: physicochemical; conditions: buffer, pH 8, 20 µM
[26] = Cmax in BALB/c mouse at 1 mg/kg, iv measured upto 72 hrs by snapshot method; format: ADME, organism-based; set-up: dose 1 mg/kg, route intravenous; conditions: in vivo
[27] = test system: Leishmania infantum; assay: Antileishmanial activity against Leishmania infantum amastigotes infected in Syrian hamster assessed as parasite load within spleen at 20 mg/kg/day, po for 10 days (reference value: 9151063.431 +/- 2606154.975/g); format: functional
[28] = Toxicity in Syrian hamster infected with Leishmania infantum BCN150 promastigotes assessed as dizziness at 20 mg/kg/day, po for 10 days measured daily; format: organism-based, Mesocricetus auratus; conditions: in vivo, 240 h
[29] = test system: Leishmania donovani; assay: Antileishmanial activity against Leishmania donovani BPK091 promastigotes transfected with Leishmania donovani BPK190 genomic cosmid DNA assessed as parasite growth at IC75 concentration incubated for 3 days under selective pressure and selection cycle repeated for 25 passages and measured at 43 to 78 days of selection relative to control; format: functional
[30] = test system: Leishmania donovani; assay: Antileishmanial activity against Leishmania donovani 1SR promastigotes assessed as parasite growth at IC50 concentration incubated with compound for 3 days under selective pressure and selection cycle repeated 10 times for total of 33 days and measured at 3 to 33 days of selection; format: functional, organism-based
[31] = Toxicity in Syrian hamster infected with Leishmania infantum BCN150 promastigotes assessed as itching effect at 20 mg/kg/day, po for 10 days measured daily; format: organism-based, Mesocricetus auratus; conditions: in vivo, 240 h

Question: For `COc1ccc2oc(-c3csc4ccccc34)c(O)c(=O)c2c1`, which Activity [1] is on record?
Answer: Active

Question: What about the Time [2] of the same molecule?
Answer: 5.5 nanoseconds

Question: And the Activity [3]?
Answer: Active

Question: What about the inhibition at 5 µM [4] of the same molecule?
Answer: 78%

Question: And the Tmax [5]?
Answer: 1 h

Question: And the Activity [6]?
Answer: Non-Toxic

Question: And the Activity [7]?
Answer: 4000000 g⁻¹

Question: And the inhibition at 10 µM [8]?
Answer: 69%

Question: And the Stability [9]?
Answer: Unstable

Question: What about the AUC at 72 h [10] of the same molecule?
Answer: 38.5 µM·h and 12500 ng·h/mL

Question: What about the inhibition in vivo at 40 mg/kg/day [11] of the same molecule?
Answer: 25.9%

Question: And the Activity [12]?
Answer: 0.191 g

Question: What about the Time [13] of the same molecule?
Answer: 5.5 nanoseconds

Question: And the concentration at 240 h [14]?
Answer: 76 nM

Question: And the Activity [15]?
Answer: Non-Toxic

Question: What about the Activity [16] of the same molecule?
Answer: 7030915.598 g⁻¹

Question: What about the Activity [17] of the same molecule?
Answer: 0.19 g

Question: What about the Activity [18] of the same molecule?
Answer: Active

Question: And the Activity [19]?
Answer: Toxic

Question: What about the selectivity ratio [20] of the same molecule?
Answer: 50

Question: What about the Activity [21] of the same molecule?
Answer: Non-Toxic

Question: And the Activity [22]?
Answer: Non-Toxic

Question: What about the Activity [23] of the same molecule?
Answer: Non-Toxic

Question: And the Activity [24]?
Answer: Active

Question: And the Stability [25]?
Answer: Unstable

Question: What about the Cmax [26] of the same molecule?
Answer: 4.76 µM and 1540 ng/mL

Question: What does the source list for `CCCCCCCCCCCCCCCCOP(=O)([O-])OCC[N+](C)(C)C` [MILTEFOSINE]?
Answer: Activity [27]: 244476.109 g⁻¹; Activity [28]: Toxic; Activity [29]: >75%; inhibition [30]: inactive; Activity [31]: Toxic
